Assay results as given in PMC7440668, “Nitrogen coordinated import and export of arginine across the yeast vacuolar membrane” (PLoS Genetics, 2020).

Tests used:
Assay type in all cases: biochemical
Ypq2 [1] = biological target: T1, Ypq2 (Saccharomyces cerevisiae, UniProt Q06328); test: inhibition of Ypq2-dependent […]-Arg uptake into isolated vacuoles, […] min; details: read-out: % inhibition at 5 mM
T1 construct: native full-length protein in isolated intact vacuoles; ypq1-2-3 triple-mutant background subtracted from ypq1-3 double-mutant
T1 sequence (Q06328 1-317): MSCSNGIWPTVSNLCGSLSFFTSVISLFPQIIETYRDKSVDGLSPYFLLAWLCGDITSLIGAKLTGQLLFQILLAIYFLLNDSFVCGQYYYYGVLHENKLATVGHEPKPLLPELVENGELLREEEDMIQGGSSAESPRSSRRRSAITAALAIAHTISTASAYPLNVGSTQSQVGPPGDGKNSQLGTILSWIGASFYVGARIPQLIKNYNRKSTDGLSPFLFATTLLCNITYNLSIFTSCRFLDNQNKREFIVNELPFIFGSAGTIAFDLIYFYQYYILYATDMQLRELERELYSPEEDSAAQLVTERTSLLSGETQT

Ypq2 [2] = biological target: T1, Ypq2; test: as above; details: 50 μM 14C-Arg, no ATP; competitor added simultaneously
Avt1 = biological target: T2, Avt1 (Saccharomyces cerevisiae, UniProt P47082); test: 3H-L-tyrosine uptake into isolated intact vacuoles, wild type versus avt1 deletion; details: 50 μM 3H-tyrosine, 4 mM ATP, 27 °C; needs H+ gradient; labelled compound
T2 construct: native full-length protein in isolated intact vacuoles; wild type versus avt1 deletion mutant
T2 sequence (P47082 1-602): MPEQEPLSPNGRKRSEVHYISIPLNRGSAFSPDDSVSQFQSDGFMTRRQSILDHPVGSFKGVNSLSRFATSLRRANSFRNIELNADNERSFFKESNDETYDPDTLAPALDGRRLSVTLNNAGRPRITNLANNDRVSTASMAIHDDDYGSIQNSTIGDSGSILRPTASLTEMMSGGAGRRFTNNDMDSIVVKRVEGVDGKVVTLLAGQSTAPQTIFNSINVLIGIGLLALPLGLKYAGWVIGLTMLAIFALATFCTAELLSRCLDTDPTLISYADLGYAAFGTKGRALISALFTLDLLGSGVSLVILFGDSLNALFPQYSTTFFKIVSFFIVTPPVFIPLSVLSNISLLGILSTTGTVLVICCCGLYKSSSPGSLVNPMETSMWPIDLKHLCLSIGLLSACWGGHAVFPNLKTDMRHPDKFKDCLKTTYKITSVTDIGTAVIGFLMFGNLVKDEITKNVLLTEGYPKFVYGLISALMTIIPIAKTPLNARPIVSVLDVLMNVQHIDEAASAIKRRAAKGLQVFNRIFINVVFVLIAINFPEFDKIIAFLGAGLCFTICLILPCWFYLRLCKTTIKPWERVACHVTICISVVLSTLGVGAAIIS

| Compound | % inhibition at 5 mM (Ypq2 [2]) | other results |
| --- | --- | --- |
| NCCC[C@H](N)C(=O)O [ornithine] |  | inhibition at 5000 µM (Ypq2 [1]): ~50% |
| N=C(N)NCCC[C@@H](N)C(=O)O [D-Arg] | Canavanine, the D-Arg and the L- and D-isomers of His completely inhibited the uptake |  |
| N=C(N)NOCC[C@H](N)C(=O)O [Canavanine] | Canavanine, the D-Arg and the L- and D-isomers of His completely inhibited the uptake |  |
| N[C@@H](Cc1cnc[nH]1)C(=O)O [His] | Canavanine, the D-Arg and the L- and D-isomers of His completely inhibited the uptake |  |
| N[C@H](Cc1c[nH]cn1)C(=O)O [D-isomer of His] | Canavanine, the D-Arg and the L- and D-isomers of His completely inhibited the uptake |  |
| N[C@@H](Cc1ccc(O)cc1)C(=O)O [tyrosine] |  | 3H-L-tyrosine uptake into isolated intact vacuoles, wild type versus avt1 deleti (Avt1): Nor was it detected in vacuoles isolated from the avt1Δ mutant |
| NCCCC[C@H](N)C(=O)O [Lys] |  | inhibition at 5000 µM (Ypq2 [1]): ~50% |
